Values joined by “and” are separate entries in the source; they are usually repeats but may differ in a detail not shown here. Equal values may be shown once. Inconclusive results and toxic doses are left out. Rule as the data show it: active = T/C of 150% or more; inactive = T/C below 125%.
System: L1210 leukemia ip in BDF1 mice, survival T/C
Test: NCI In Vivo Anticancer Drug Screen. Data for tumor model L1210 Leukemia (intraperitoneal) in B6D2F1 (BDF1) mice
Conditions: endpoint: mean survival time, higher = longer survival
Outline: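 Tumor cells were implanted, animals were treated, and survival was followed. The result divides the treated measurement by the vehicle-control measurement.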

[1] = dose: 6.25 mg/kg/injection, schedule: Q01DX009 (ip), vehicle: saline
[2] = dose: 6.25 mg/kg/injection, schedule: Q04DX003 (ip), vehicle: saline
[3] = dose: 12.5 mg/kg/injection, schedule: Q04DX003 (ip), vehicle: saline
[4] = dose: 100.0 mg/kg/injection, schedule: Q04DX003 (ip), vehicle: Klucel (hydroxypropylcellulose) (HPC)
[5] = dose: 100.0 mg/kg/injection, schedule: Q04DX003 (ip), vehicle: saline
[6] = dose: 200.0 mg/kg/injection, schedule: Q01DX009 (ip), vehicle: Klucel (hydroxypropylcellulose) (HPC)
[7] = dose: 200.0 mg/kg/injection, schedule: Q04DX003 (ip), vehicle: Klucel (hydroxypropylcellulose) (HPC)
[8] = dose: 200.0 mg/kg/injection, schedule: Q04DX003 (ip), vehicle: saline
[9] = dose: 400.0 mg/kg/injection, schedule: Q01DX009 (ip), vehicle: Klucel (hydroxypropylcellulose) (HPC)
[10] = dose: 400.0 mg/kg/injection, schedule: Q04DX003 (ip), vehicle: Klucel (hydroxypropylcellulose) (HPC)
[11] = dose: 100.0 mg/kg/injection, schedule: Q01DX009 (ip), vehicle: saline with Tween-80
[12] = dose: 200.0 mg/kg/injection, schedule: Q01DX009 (ip), vehicle: saline with Tween-80
[13] = dose: 400.0 mg/kg/injection, schedule: Q01DX009 (ip), vehicle: saline with Tween-80
[14] = dose: 100.0 mg/kg/injection, schedule: Q01DX001 (ip), vehicle: saline
[15] = dose: 200.0 mg/kg/injection, schedule: Q01DX001 (ip), vehicle: saline
[16] = dose: 400.0 mg/kg/injection, schedule: Q01DX001 (ip), vehicle: saline

Measured: T/C

O=C1C=CC(=O)c2cc(Cl)c(Cl)cc21
inactive: dose: 3.12 mg/kg/injection, schedule: Q01DX009 (ip), vehicle: saline 89 % of control | [1] 90 % of control | [2] 96 % of control | dose: 12.5 mg/kg/injection, schedule: Q01DX001 (ip), vehicle: saline 98 % of control | [3] 98 % of control | dose: 25.0 mg/kg/injection, schedule: Q01DX001 (ip), vehicle: saline 90 % of control

CN(C)N=Nc1cn[nH]c1C(N)=O
inactive: dose: 25.0 mg/kg/injection, schedule: Q01DX009 (ip), vehicle: Klucel (hydroxypropylcellulose) (HPC) 117 % of control | dose: 50.0 mg/kg/injection, schedule: Q01DX009 (ip), vehicle: Klucel (hydroxypropylcellulose) (HPC) 112 % of control and 117 % of control and 118 % of control | [4] 96 % of control and 121 % of control | [5] 111 % of control | dose: 178.0 mg/kg/injection, schedule: Q01DX009 (ip), vehicle: saline 87 % of control | [6] 105 % of control and 113 % of control | [7] 98 % of control | [8] 119 % of control | dose: 267.0 mg/kg/injection, schedule: Q01DX009 (ip), vehicle: saline 91 % of control | [9] 103 % of control

Cc1cc(OC(=O)c2ccc(N(C)C)cc2)ccc1[N+](=O)[O-]
inactive: dose: 100.0 mg/kg/injection, schedule: Q01DX009 (ip), vehicle: Klucel (hydroxypropylcellulose) (HPC) 95 % of control | [4] 96 % of control | [6] 94 % of control | [7] 91 % of control | [9] 97 % of control | [10] 95 % of control

O=C(O)CC(Sc1ccccc1)C(=O)O (stereo not drawn)
inactive: dose: 100.0 mg/kg/injection, schedule: Q04DX002 (ip), vehicle: saline + alcohol 99 % of control | dose: 200.0 mg/kg/injection, schedule: Q04DX002 (ip), vehicle: saline + alcohol 102 % of control | dose: 400.0 mg/kg/injection, schedule: Q04DX002 (ip), vehicle: saline + alcohol 99 % of control

CCCCOC(=O)Nc1ccccc1
inactive: dose: 100.0 mg/kg/injection, schedule: Q04DX003 (ip), vehicle: gum acacia 101 % of control | dose: 200.0 mg/kg/injection, schedule: Q04DX003 (ip), vehicle: gum acacia 108 % of control | dose: 400.0 mg/kg/injection, schedule: Q04DX003 (ip), vehicle: gum acacia 109 % of control

Nc1ncnc2c(-c3ccccc3)c[nH]c12
inactive: dose: 100.0 mg/kg/injection, schedule: Q01DX001 (ip), vehicle: Klucel (hydroxypropylcellulose) (HPC) 102 % of control | [4] 100 % of control | dose: 200.0 mg/kg/injection, schedule: Q01DX001 (ip), vehicle: Klucel (hydroxypropylcellulose) (HPC) 97 % of control | [7] 100 % of control | dose: 400.0 mg/kg/injection, schedule: Q01DX001 (ip), vehicle: Klucel (hydroxypropylcellulose) (HPC) 91 % of control | [10] 104 % of control

CCCCOC(=O)C(C)OC(=O)Nc1cccc(Cl)c1 (stereo not drawn)
inactive: [11] 93 % of control | [12] 95 % of control | [13] 90 % of control

CCCCCCCCCCCCOc1ccc(C(=O)O)cc1
inactive: dose: 50.0 mg/kg/injection, schedule: Q01DX001 (ip), vehicle: other 100 % of control | dose: 100.0 mg/kg/injection, schedule: Q01DX001 (ip), vehicle: other 100 % of control | dose: 200.0 mg/kg/injection, schedule: Q01DX001 (ip), vehicle: other 93 % of control | dose: 400.0 mg/kg/injection, schedule: Q01DX001 (ip), vehicle: other 93 % of control

Cc1cc[n+](Cc2ccccc2Cl)cc1
inactive: [1] 97 % of control | [2] 96 % of control | dose: 12.5 mg/kg/injection, schedule: Q01DX009 (ip), vehicle: saline 97 % of control | [3] 107 % of control | dose: 25.0 mg/kg/injection, schedule: Q01DX009 (ip), vehicle: saline 100 % of control | dose: 25.0 mg/kg/injection, schedule: Q04DX003 (ip), vehicle: saline 89 % of control

CC1CN1P(=O)(N1CC=CCC1)N1CC1C (stereo not drawn)
inactive: dose: 50.0 mg/kg/injection, schedule: Q01DX001 (ip), vehicle: saline 109 % of control | [14] 120 % of control | [15] 101 % of control | [16] 91 % of control

CSc1ccc(NC(=O)Nc2c(C)n(C)n(-c3ccccc3)c2=O)cc1
inactive: [14] 89 % of control | [11] 89 % of control | [5] 94 % of control | [15] 89 % of control | [12] 89 % of control | [8] 94 % of control | [16] 94 % of control | [13] 86 % of control | dose: 400.0 mg/kg/injection, schedule: Q04DX003 (ip), vehicle: saline 87 % of control

C#CCCCCC#CCCCCCl
inactive: dose: 25.0 mg/kg/injection, schedule: Q01DX009 (ip), vehicle: acetone 104 % of control | dose: 50.0 mg/kg/injection, schedule: Q01DX009 (ip), vehicle: acetone 95 % of control | dose: 100.0 mg/kg/injection, schedule: Q01DX009 (ip), vehicle: acetone 87 % of control | dose: 100.0 mg/kg/injection, schedule: Q04DX003 (ip), vehicle: acetone 90 % of control | dose: 200.0 mg/kg/injection, schedule: Q04DX003 (ip), vehicle: acetone 93 % of control

IP(c1ccccc1)(c1ccccc1)(c1ccccc1)N1C2CCCCC21 (stereo not drawn)
inactive: dose: 0.15 mg/kg/injection, schedule: Q01DX009 (ip), vehicle: acetone 107 % of control | dose: 0.31 mg/kg/injection, schedule: Q01DX009 (ip), vehicle: acetone 115 % of control | dose: 0.62 mg/kg/injection, schedule: Q01DX009 (ip), vehicle: acetone 115 % of control | dose: 0.62 mg/kg/injection, schedule: Q01DX009 (ip), vehicle: saline 112 % of control | dose: 0.62 mg/kg/injection, schedule: Q04DX003 (ip), vehicle: saline 113 % of control | dose: 1.2 mg/kg/injection, schedule: Q01DX001 (ip), vehicle: acetone 114 % of control | dose: 1.25 mg/kg/injection, schedule: Q01DX009 (ip), vehicle: saline 104 % of control | dose: 1.25 mg/kg/injection, schedule: Q04DX003 (ip), vehicle: saline 93 % of control | dose: 2.5 mg/kg/injection, schedule: Q01DX001 (ip), vehicle: acetone 119 % of control | dose: 2.5 mg/kg/injection, schedule: Q01DX009 (ip), vehicle: saline 114 % of control

c1ccc2c(c1)ccc1c3ccccc3[nH]c21
inactive: dose: 100.0 mg/kg/injection, schedule: Q04DX003 (ip), vehicle: saline with Tween-80 93 % of control | dose: 200.0 mg/kg/injection, schedule: Q04DX003 (ip), vehicle: saline with Tween-80 105 % of control | dose: 400.0 mg/kg/injection, schedule: Q04DX003 (ip), vehicle: saline with Tween-80 96 % of control

CCN(CC)CCNC(=O)c1ccc2nc(N)sc2c1
inactive: dose: 75.0 mg/kg/injection, schedule: Q01DX001 (ip), vehicle: saline 96 % of control | dose: 150.0 mg/kg/injection, schedule: Q01DX001 (ip), vehicle: saline 91 % of control

O=C(NCCO)Nc1cccc(Cl)c1
inactive: dose: 100.0 mg/kg/injection, schedule: Q04DX002 (ip), vehicle: saline 100 % of control | dose: 200.0 mg/kg/injection, schedule: Q04DX002 (ip), vehicle: saline 100 % of control | dose: 400.0 mg/kg/injection, schedule: Q04DX002 (ip), vehicle: saline 111 % of control

Source: PubChem BioAssay AID248 (DTP/NCI, 2004)
